Assay results taken from patent US4246270A, “3-Fluorobenzodiazepines and compositions and uses thereof” (E. I. Du Pont de Nemours and Company, priority 1976, dated 1981).
Where two headings read alike, the source gives them in different places.

Key:
[1] = warming in alcohol; cited from earlier work
[2] = test system: auditory pinna reflex; experiment: Auditory pinna reflex test (mouse); format: in vivo; settings: 0.5 h, oral (intubated), 30 minutes
Description: (§1) Standard procedures for detecting and comparing the tranquilizer, muscle-relaxant, and sedative activity of compounds in this series for which there is a correlation with human efficacy are the following: pinna reflex tests, antipentylenetetrazole test, rat activity suppression test (RAST), muscle relaxant (anti-straub tail) test, and mouse activity suppression test (MAST).
(§2) Fasted female white mice, 5 per dose are intubated with drug at 4, 12, 36, 108 and 324 mg/kg in 1% Methocel®^- 1.25% Tween 80®, at 10 ml/kg. The auditory and tactile pinna are tested at 0.5, 2, 5 and 24 hours.
The mouse is placed on a horizontal bar 9 cm from a Galton whistle adjusted for 13 Kc. Failure to flatten the ears during one or 2 short bursts of sound constitutes loss of auditory pinna reflex.
(§3) Potency in the antipentylenetetrazole (PTZ), the MAST, and the RAST tests indicates a potent antianxiety agent. Great potency for blockade of the mouse auditory pinna reflex with little or no effect on tactile pinna reflex is characteristic of minor tranquilizers.

[3] = test system: tactile pinna reflex; experiment: Tactile pinna reflex test (mouse); format: in vivo; settings: 0.5 h, oral (intubated), 30 minutes
Description: as §1, §2
The mouse is held by the tail and the hairs inside the right ear are touched by the fine wire stylus from a 27 gauge needle. Failure of the mouse to twitch or move the head constitutes loss of the tactile pinna reflex.
as §3

[4] = test system: PTZ-induced clonic convulsions; experiment: Antipentylenetetrazole (PTZ) test; format: in vivo; settings: mouse; for ED50: 0.5 h, oral (intubated), 30 minutes before PTZ 40 mg/kg iv, read-out: Anti-PTZ, mouse ED50
Description: as §1
Fasted female white mice, 10 per dose are intubated with drug in vehicle as above at doses such as 0, 1, 3, 9, 27 and 81 mg/kg. Thirty minutes later the mice are dosed intravenously with PTZ (Metrazol®^1) at 40 mg/kg (ED98 for clonic convulsions). Dosed animals which remain on a 4"×4" platform for 20 seconds are considered protected. Quantal ED50 's are calculated by the moving average method.
1 Original brand of pentylenetetrazole; sterile 10% aqueous solution for parenteral injection, Knoll Pharmaceutical Company.
as §3

[5] = test system: suppression of exploratory locomotor behavior by punishment; experiment: Mouse activity suppression test (MAST); format: in vivo; settings: oral, footnote *ED20%
From the text: as §1
The Mouse Activity Suppression Test (MAST) is a model system designed to detect compounds with possible anti-anxiety activity in humans. […] The punishment, an electric shock applied through the mouse's paws, quickly extinguishes normal behavior.
The test procedure is modified from Boissier, et al., European J. Pharm., 4, 145-151 (1968). Female white mice, fasted 16-22 hours, are randomly distributed to fiberglass holding boxes. Mice in groups of 10-20 are dosed orally and returned to their holding boxes until test time. Test drug suspensions or solutions are prepared by sonication in 1% Methocel®. Typical dose ranges include 0.5, 1, 2, and 4 mg/k or 1, 3, 9, 27, 81 mg/kg plus a vehicle control and are selected to include one dose at which an effect such as sedation, stimulation, muscle weakness or analgesia was seen.
The test apparatus is an opaque, black plastic box with a clear lid and a stainless steel grid floor. The floor of the test box is marked off into four squares of equal size.
After dosing, a mouse is gently place in one corner of the testing box and during the next minute each time the mouse makes a full crossing from one square section of the box to another the floor is electrified with 0.4 ma current for 2.0 seconds.
The number of shocks received by each mouse is recorded and the mean number of shocks/dose (X) is determined. When X drug at any dose is statistically greater than X controls (Student's t test), antagonism of suppression obtains and the drug is presumed to have anti-anxiety activity.
as §3

[6] = test system: morphine-induced Straub tail; experiment: Muscle relaxant (anti-Straub tail) test; format: in vivo; settings: 0.5 h; mouse, oral (intubated), 30 minutes; blockade of morphine-induced Straub tail (53.7 mg/kg sc)
From the text: as §1
Fasted female white mice, 5 per dose are intubated with test drug. Twenty-five minutes later morphine sulfate is given subcutaneously at 53.7 mg/kg. Thirty minutes after test drug the mice are observed for presence of Straub tail. Quantal ED50 values for blockade of morphine-induced Straub tail are calculated.
as §3

[7] = test system: line crossings suppressed by shock; experiment: Rat activity suppression test (RAST); format: in vivo; settings: 0.5 h, oral (intubated), 30 minutes, dose which would increase crossings 50% over controls
From the text: as §1
The test apparatus consists of a circular cage with lid and with a floor of electrifiable steel bars. D.C. shock current is supplied to the bars such that touching any 2 alternate bars shocks the rat. The floor is marked to yield 4 equal pie-shaped sectors.
Fasted male white rats, 10 per dose are intubated with drug as described above for mice. Thirty minutes after dosing a rat is placed in the test apparatus and is allowed 30 seconds to transverse 25% of the floor area after which he receives a shock. The rat is allowed 5 seconds to recover from the shock, then its "line crossings" are counted for 60 seconds. The mean number of crossings per rat for each dose are determined and are compared to the mean number of crossings of the vehicle treated controls. ED50 %, the dose which would increase the number of crossings 50% over controls, is determined graphically.
as §3

[8] = man and other animals; cited from earlier work
[9] = 0.5 h, 30 minutes, read-out: MAST, ED20%

Compound | stability (3-chloro derivative) [1] | ED50 [2] [mg/kg] | ED50 [3] [mg/kg] | ED50 [4] [mg/kg] | ED20 [5, 9] [mg/kg] | ED50 [6] [mg/kg] | ED50 [7] [mg/kg] | ED98 ([4]; intravenous PTZ challenge) [mg/kg] | ED20 ([5]; 1 h, 60 minutes (footnote d), read-out: MAST, ED20% (at 60 minutes)) [mg/kg] | metabolism [8]
O=C1Nc2ccc(Cl)cc2C(c2ccccc2)=NC1Cl (stereo not drawn) [3,7-dichloro-5-phenyl-1,3-dihydro-2H-1,4-benzodiazepin-2-one] | extremely reactive: mere warming in alcohol caused decomposition |  |  |  |  |  |  |  |  | 
CNC1=Nc2ccc(Cl)cc2C(c2ccccc2)=[N+]([O-])C1 [Chlorodiazepoxide, reference compound] |  | 70 | 320 | 7.5 | 8.5 | 1.9 | 6 |  |  | 
CN1C(=O)CN=C(c2ccccc2)c2cc(Cl)ccc21 [Diazepam, reference compound] |  | 4 | 187 | 0.49 | 1.1 | 1 | 1.5 |  |  | 
O=C1Nc2ccc(Cl)cc2C(c2ccccc2)=NC1O (stereo not drawn) [Oxazepam, reference compound] |  | 2.9 |  | 2 | 2.7 | 0.26 | 2.5 |  |  | 
C1CCc2nnnn2CC1 [PTZ, pentylenetetrazole, reference compound] |  |  |  |  |  |  |  | 40 |  | 
CN1C(=O)C(F)N=C(c2ccccc2F)c2cc(Br)ccc21 (stereo not drawn) [X=Br, Y=F, Z=CH3, 3-Fluoro-7-bromo-5-(2-fluorophenyl)-1,3-dihydro-1-methyl-2H-1,4-benzodiazepin-2-one] |  | < 4 | < 324 | 0.06 |  |  |  |  |  | 
O=C1Nc2ccc(Br)cc2C(c2ccccc2F)=NC1F (stereo not drawn) [X=Br, Y=F, Z=H, 3-Fluoro-7-bromo-5-(2-fluorophenyl)-1,3-dihydro-2H-benzodiazepin-2-one] |  | < 4 | 300 | 0.12 |  |  |  |  |  | 
CN1C(=O)C(F)N=C(c2ccccc2)c2cc(Br)ccc21 (stereo not drawn) [X=Br, Y=H, Z=CH3, 3-Fluoro-7-bromo-1,3-dihydro-1-methyl-5-phenyl-2H-1,4-benzo-diazepin-2-one] |  | 1.3 | 300 | 0.22 | 0.16 |  | 1.7 |  |  | 
O=C1Nc2ccc(Br)cc2C(c2ccccc2)=NC1F (stereo not drawn) [X=Br, Y=H, Z=H, 3-Fluoro-7-bromo-1,3-dihydro-5-phenyl-2H-1,4-benzodiazepin-2-one] |  | 1.2 | 100 | 0.74 | 0.04 | 0.05 | 0.15 |  |  | 
CN1C(=O)C(F)N=C(c2ccccc2Cl)c2cc(Cl)ccc21 (stereo not drawn) [X=Cl, Y=Cl, Z=CH3, 3-Fluoro-7-chloro-5-(2-chlorophenyl)-1,3-dihydro-1-methyl-2H-1,4-benzodiazepin-2-one] |  | 60 | > 324 | 0.09 |  |  |  |  |  | 
O=C1Nc2ccc(Cl)cc2C(c2ccccc2Cl)=NC1F (stereo not drawn) [X=Cl, Y=Cl, Z=H, 3-Fluoro-7-chloro-5-(2-chlorophenyl)-1,3-dihydro-2H-1,4-benzodiazepin-2-one] |  | < 4 | > 324 | 0.34 | 1.15 | < 0.33 |  |  |  | 
CN1C(=O)C(F)N=C(c2ccccc2F)c2cc(Cl)ccc21 (stereo not drawn) [X=Cl, Y=F, Z=CH3, 3-Fluoro-1,3-dihydro-1-methyl-7-chloro-5-(2-fluorophenyl)-2H-1,4-benzodiazepin-2-one] |  | 7 | 200 | 0.12 | 0.05 | 0.06 | 0.24 |  |  | 
O=C1Nc2ccc(Cl)cc2C(c2ccccc2F)=NC1F (stereo not drawn) [X=Cl, Y=F, Z=H, 3-Fluoro-1,3-dihydro-7-chloro-5-(2-fluorophenyl)-2H-1,4-benzodiazepin-2-one] |  | 12 | 200 | 0.42 | 0.48 |  |  |  |  | 
CCN1C(=O)C(F)N=C(c2ccccc2)c2cc(Cl)ccc21 (stereo not drawn) [X=Cl, Y=H, Z=C2 H5, 3-Fluoro-1,3-dihydro-1-ethyl-7-chloro-5-phenyl-2H-1,4-benzodiazepin-2-one] |  | 12 | > 324 | 0.56 | 0.45 | < 0.24 |  |  |  | 
C=CCN1C(=O)C(F)N=C(c2ccccc2)c2cc(Cl)ccc21 (stereo not drawn) [X=Cl, Y=H, Z=CH2 CHCH2, 3-Fluoro-1-(allyl)-7-chloro-5-phenyl-2H-1,4-benzodiazepin-2-one] |  | 20 | 100 | 6.1 | 2.9 | < 1 |  |  |  | 
CN1C(=O)C(F)N=C(c2ccccc2)c2cc(Cl)ccc21 (stereo not drawn) [X=Cl, Y=H, Z=CH3, 3-Fluoro-1,3-dihydro-1-methyl-7-chloro-5-phenyl-2H-1,4-benzodiazepin-2-one] |  | 5 | 121 | 0.18 | 0.25 | 0.25 | 0.45 |  |  | 
O=C1Nc2ccc(Cl)cc2C(c2ccccc2)=NC1F (stereo not drawn) [X=Cl, Y=H, Z=H, 3-Fluoro-1,3-dihydro-7-chloro-5-phenyl-2H-1,4-benzodiazepin-2-one] |  | 2.6 |  | 0.39 |  | 0.1 |  |  | 0.37 | 
CNC(=O)N1C(=O)C(F)N=C(c2ccccc2)c2cc(Cl)ccc21 (stereo not drawn) [X=Cl, Y=H, Z=[drawing 57]] |  | < 4 | 36 |  |  |  |  |  |  | 
CCN(CC)CCN1C(=O)CN=C(c2ccccc2F)c2cc(Cl)ccc21 [flurazepam] |  |  |  |  |  |  |  |  |  | metabolized in man and other animals by oxidative attack at the 3-position
O=C1CN=C(c2ccccc2)c2cc([N+](=O)[O-])ccc2N1 [nitrazepam] |  |  |  |  |  |  |  |  |  | metabolized in man and other animals by oxidative attack at the 3-position
